Reference: US20050002885A1, “Topical compositions and methods for treating pseudofolliculitis barbae and ingrown hair” (priority 1993, published 2005)

Legend:
[1] = cited from earlier work
[2] = saturation concentration of acetylsalicylic acid in the solvent mixture; assay type: physicochemical; conditions: solvent mixture: propylene glycol about 10 percent by volume, glycerine about 2 percent by volume, balance isopropyl alcohol/water with isopropyl alcohol about 70 percent by volume

Compound: CC(=O)Oc1ccccc1C(=O)O [acetylsalicylic acid]
- solubility in water or water based substances [1]: virtually insoluble
- saturation concentration of the acetylsalicylic acid in this solvent mixture [2]: about 18 percent by weight per unit volume
